# Source: BindingDB's records for doi:10.1124/jpet.104.070086 (University of North Carolina At Chapel Hill, 2004)
# Molecular target: Histamine H1 receptor (Cavia porcellus, UniProt P31389)
# Sequence (P31389 whole entry): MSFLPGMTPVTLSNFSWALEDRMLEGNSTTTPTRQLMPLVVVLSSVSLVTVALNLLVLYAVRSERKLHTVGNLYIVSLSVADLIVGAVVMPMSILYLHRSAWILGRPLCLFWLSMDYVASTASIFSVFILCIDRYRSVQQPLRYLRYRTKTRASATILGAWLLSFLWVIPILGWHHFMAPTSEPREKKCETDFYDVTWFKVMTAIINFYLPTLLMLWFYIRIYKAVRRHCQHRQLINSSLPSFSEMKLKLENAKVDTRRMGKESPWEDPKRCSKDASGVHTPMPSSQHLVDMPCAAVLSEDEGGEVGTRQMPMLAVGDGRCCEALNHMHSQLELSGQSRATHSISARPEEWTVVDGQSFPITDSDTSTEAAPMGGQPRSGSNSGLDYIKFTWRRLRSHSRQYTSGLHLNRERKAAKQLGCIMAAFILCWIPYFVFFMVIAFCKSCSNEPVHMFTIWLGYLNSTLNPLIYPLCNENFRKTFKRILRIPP
compound,measurement,value
Cc1ccc(C(=CCN2CCCC2)c2ccccn2)cc1 [CAS_486-12-4],Ki,0.93 nM
